Measured values reported in patent US20260325540A1 (priority 2023, published 2026).

Legend:
SARS-CoV-2 3CLpro = SARS-CoV-2 3CLpro (Severe acute respiratory syndrome coronavirus 2, UniProt P0DTD1); assay: FRET based protease assay, SARS-CoV-2 3CL; format: biochemical, SARS-CoV-2 (strain BetaCoV/Wuhan/WIV04/2019)
MERS-CoV 3CLpro = MERS-CoV 3CLpro (Middle East respiratory syndrome-related coronavirus, UniProt K9N638); assay: biochemical; conditions: MERS IC50, 75 nM MERS-CoV 3CLpro, 6 μM peptide 1 substrate, 25° C., 1.5 hrs, pH 7.5
Chain of MERS-CoV 3CLpro (K9N638 3248-3553 limits assumed): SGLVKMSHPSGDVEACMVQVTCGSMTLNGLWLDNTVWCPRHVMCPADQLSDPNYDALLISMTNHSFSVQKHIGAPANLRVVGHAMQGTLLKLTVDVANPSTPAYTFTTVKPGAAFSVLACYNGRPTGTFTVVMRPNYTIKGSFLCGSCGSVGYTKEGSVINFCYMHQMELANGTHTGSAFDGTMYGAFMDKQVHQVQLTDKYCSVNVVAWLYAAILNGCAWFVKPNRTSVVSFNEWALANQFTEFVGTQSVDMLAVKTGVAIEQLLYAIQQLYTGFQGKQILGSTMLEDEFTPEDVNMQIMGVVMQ

Structure (SMILES)	IC50 (SARS-CoV-2 3CLpro) [nM]	IC50 (MERS-CoV 3CLpro) [nM]
Cc1cc(C(=O)N[C@H]2CCCC[C@H]3CNC(=O)[C@H]3C[C@@H](C#N)NC(=O)[C@@H]3[C@@H]4[C@H](CN3C2=O)C4(C)C)on1 [Example 109]	< 100	< 100
CC(C)(C)OC(=O)N[C@H]1CCCC[C@H]2CCNC(=O)[C@H]2C[C@@H](C#N)NC(=O)[C@@H]2[C@@H]3[C@H](CN2C1=O)C3(C)C [Example 110]	< 100	100 to 1000
CC(C)(C)OC(=O)N[C@H]1CCCC[C@H]2CNC(=O)[C@H]2C[C@@H](C#N)NC(=O)[C@@H]2[C@H]3CC[C@H](CC3)N2C1=O [Example 111]	100 to 1000	100 to 1000
CC(C)(C)OC(=O)N[C@H]1CC/C=C/[C@H]2CNC(=O)[C@H]2C[C@@H](C#N)NC(=O)[C@@H]2[C@H]3CCC[C@H]3CN2C1=O [Example 112]	< 100	100 to 1000
Cc1nc(C(=O)N[C@H]2CCCC[C@H]3CNC(=O)[C@H]3C[C@@H](C#N)NC(=O)[C@@H]3[C@@H]4[C@H](CN3C2=O)C4(C)C)cs1 [Example 113]	100 to 1000	< 100
CC(C)(C)OC(=O)N[C@H]1CC/C=C\[C@H]2CCNC(=O)[C@H]2C[C@@H](C#N)NC(=O)[C@@H]2[C@@H]3[C@H](CN2C1=O)C3(C)C [Example 114]	< 100	100 to 1000
Cc1nc(C(=O)N[C@H]2CCCC[C@H]3CNC(=O)[C@H]3C[C@@H](C#N)NC(=O)[C@@H]3[C@@H]4[C@H](CN3C2=O)C4(C)C)co1 [Example 115]	< 100	< 100
CC1(C)[C@@H]2[C@H]3C(=O)N[C@H](C#N)C[C@@H]4C(=O)NC[C@@H]4CCCC[C@H](NC(=O)c4ccc(F)c(C(F)(F)F)c4)C(=O)N3C[C@@H]21 [Example 116]	< 100	< 100
CC1(C)[C@@H]2[C@H]3C(=O)N[C@H](C#N)C[C@@H]4C(=O)NC[C@@H]4CCCC[C@H](NC(=O)C4(C(F)(F)F)CC4)C(=O)N3C[C@@H]21 [Example 117]	< 100	< 100
CC1(C(=O)N[C@H]2CCCC[C@H]3CNC(=O)[C@H]3C[C@@H](C#N)NC(=O)[C@@H]3[C@@H]4[C@H](CN3C2=O)C4(C)C)CCC1 [Example 118]	< 100	100 to 1000
CC1(C)[C@@H]2[C@H]3C(=O)N[C@H](C#N)C[C@@H]4C(=O)NC[C@@H]4CCCC[C@H](NC(=O)C45CC(C(F)(F)F)(C4)C5)C(=O)N3C[C@@H]21 [Example 119]	< 100	< 100
CC1(C)[C@@H]2[C@H]3C(=O)N[C@H](C#N)C[C@@H]4C(=O)NC[C@@H]4CCCC[C@H](NC(=O)c4ccc(Cl)c(Cl)c4)C(=O)N3C[C@@H]21 [Example 120]	< 100	< 100
CC(C)(C(=O)N[C@H]1CCCC[C@H]2CNC(=O)[C@H]2C[C@@H](C#N)NC(=O)[C@@H]2[C@@H]3[C@H](CN2C1=O)C3(C)C)c1ccc(Cl)cc1 [Example 121]	< 100	100 to 1000
Cc1cc(C(=O)N[C@H]2CCCC[C@H]3CNC(=O)[C@H]3C[C@@H](C#N)NC(=O)[C@@H]3[C@@H]4[C@H](CN3C2=O)C4(C)C)no1 [Example 122]	< 100	< 100
CC1(C(=O)N[C@H]2CCCC[C@H]3CNC(=O)[C@H]3C[C@@H](C#N)NC(=O)[C@@H]3[C@@H]4[C@H](CN3C2=O)C4(C)C)COC1 [Example 123]	< 100	100 to 1000
CC1(C)[C@@H]2[C@H]3C(=O)N[C@H](C#N)C[C@@H]4C(=O)NCC[C@@H]4CCCC[C@H](NC(=O)OC4CCCC4)C(=O)N3C[C@@H]21 [Example 124]	< 100	< 100
CC(C)(C)OC(=O)N[C@H]1CCC[C@H]2CNC(=O)[C@H]2C[C@@H](C#N)NC(=O)[C@@H]2[C@@H]3[C@H](CN2C(=O)C1)C3(C)C [Example 125]	1000 to 20000	> 20000
CC(C)(C)OC(=O)N[C@@]1(C)CCCCC[C@H]2CNC(=O)[C@H]2C[C@@H](C#N)NC(=O)[C@@H]2[C@@H]3[C@H](CN2C1=O)C3(C)C [Example 126]	> 20000	> 20000
CC(C)(C)OC(=O)N[C@H]1CCCC[C@H]2CNC(=O)[C@H]2C[C@@H](C#N)NC(=O)[C@@H]2[C@H]3CC[C@H](C3)N2C1=O [Example 127]	1000 to 20000	1000 to 20000
CC(C)(C)OC(=O)N[C@@H]1CCCC[C@H]2CNC(=O)[C@H]2C[C@@H](C#N)NC(=O)[C@@H]2[C@@H]3[C@H](CN2C1=O)C3(C)C [Example 128]	> 20000	> 20000
CC1(C)[C@@H]2[C@H]3C(=O)N[C@H](C#N)C[C@@H]4C(=O)NCC[C@@H]4CCCC[C@H](NC(=O)c4ccc(F)cc4F)C(=O)N3C[C@@H]21 [Example 129]	< 100	< 100
CC1(C)C[C@H]2C(=O)N[C@H](C#N)C[C@@H]3C(=O)NC[C@@H]3CCCC[C@H](NC(=O)OC(C)(C)C)C(=O)N2C1 [Example 130]	100 to 1000	100 to 1000
CC(C)(C)OC(=O)N[C@H]1CCCC[C@H]2CNC(=O)[C@H]2C[C@@H](C#N)NC(=O)[C@@H]2CC(F)(F)CN2C1=O [Example 131]	100 to 1000	100 to 1000

Structure (SMILES)	IC50 (SARS-CoV-2 3CLpro) [nM]	IC50 (MERS-CoV 3CLpro) [nM]
CC(C)(C)OC(=O)N[C@H]1CCCC[C@H]2CNC(=O)[C@H]2C[C@@H](C#N)NC(=O)[C@@H]2CC3(CCN2C1=O)CC3 [Example 132]	< 100	100 to 1000
CC1(C)[C@@H]2[C@H]3C(=O)N[C@H](C#N)C[C@@H]4C(=O)NC[C@@H]4CCCC[C@H](NC(=O)c4cc(Cl)ccc4Cl)C(=O)N3C[C@@H]21 [Example 133]	< 100	< 100
CC1(C)[C@@H]2[C@H]3C(=O)N[C@H](C#N)C[C@@H]4C(=O)NC[C@@H]4CCCC[C@H](NC(=O)c4cccc(Cl)c4Cl)C(=O)N3C[C@@H]21 [Example 134]	< 100	< 100
CC1(C)[C@@H]2[C@H]3C(=O)N[C@H](C#N)C[C@@H]4C(=O)NCC[C@@H]4CCCC[C@H](NC(=O)C45CC(C(F)(F)F)(C4)C5)C(=O)N3C[C@@H]21 [Example 135]	100 to 1000	< 100
CC(C)(C)C[C@@H]1NC(=O)[C@@H](NC(=O)c2ccc(Cl)c(Cl)c2)CCCC[C@H]2CNC(=O)[C@H]2C[C@@H](C#N)NC1=O [Example 136]	< 100	< 100
CC(C)(C)OC(=O)N[C@H]1CCCC[C@H]2CNC(=O)[C@H]2C[C@@H](C#N)NC(=O)[C@H](CC2CCCC2)NC1=O [Example 137]	< 100	1000 to 20000
CC(C)(F)C[C@@H]1NC(=O)[C@@H](NC(=O)OC(C)(C)C)CCCC[C@H]2CNC(=O)[C@H]2C[C@@H](C#N)NC1=O [Example 138]	100 to 1000	100 to 1000
CC1(C)[C@@H]2[C@H]3C(=O)N[C@H](C#N)C[C@@H]4C(=O)NC[C@@H]4CCCC[C@H](NC(=O)c4ccc(F)cc4C(F)(F)F)C(=O)N3C[C@@H]21 [Example 139]	< 100	< 100
CN1C[C@@H]2CCCC[C@H](NC(=O)OC(C)(C)C)C(=O)N3C[C@H]4[C@@H]([C@H]3C(=O)N[C@H](C#N)C[C@@H]2C1=O)C4(C)C [Example 140]	100 to 1000	100 to 1000
CC1(C)[C@@H]2[C@H]3C(=O)N[C@H](C#N)C[C@@H]4C(=O)NC[C@@H]4CCCC[C@H](NC(=O)C(C)(C)C(F)(F)F)C(=O)N3C[C@@H]21 [Example 141]	< 100	< 100
CC(C)(C)C[C@@H]1NC(=O)[C@@H](NC(=O)c2ccc(F)c(C(F)(F)F)c2)CCCC[C@H]2CNC(=O)[C@H]2C[C@@H](C#N)NC1=O [Example 142]	100 to 1000	100 to 1000
CC(C)(C)OC(=O)N[C@H]1CCCC[C@H]2CNC(=O)[C@H]2C[C@@H](C#N)NC(=O)[C@@H]2CCCCCN2C1=O [Example 143]	100 to 1000	100 to 1000
CCO[C@@H]1C[C@H]2C(=O)N[C@H](C#N)C[C@@H]3C(=O)NC[C@@H]3CCCC[C@H](NC(=O)OC(C)(C)C)C(=O)N2C1 [Example 144]	< 100	1000 to 20000
CCC(C)(C)[C@@H]1NC(=O)[C@@H](NC(=O)OC(C)(C)C)CCCC[C@H]2CNC(=O)[C@H]2C[C@@H](C#N)NC1=O [Example 145]	1000 to 20000	1000 to 20000
CC(C)(C)OC(=O)N[C@H]1CCCC[C@H]2CNC(=O)[C@H]2C[C@@H](C#N)NC(=O)[C@H]2N(CC(F)(F)C2(C)C)C1=O [Example 146]	100 to 1000	100 to 1000
CO[C@@H]1C[C@H]2C(=O)N[C@H](C#N)C[C@@H]3C(=O)NC[C@@H]3CCCC[C@H](NC(=O)OC(C)(C)C)C(=O)N2C1 [Example 147]	< 100	100 to 1000
CC1(C)[C@@H]2[C@H]3C(=O)N[C@H](C#N)C[C@@H]4C(=O)NC[C@@H]4CCCC[C@H](NC(=O)C45CCC(C4)C5)C(=O)N3C[C@@H]21 [Example 148]	< 100	100 to 1000
CC(C)(C)C[C@@H]1NC(=O)[C@@H](NC(=O)C2(C(F)(F)F)CC2)CCCC[C@H]2CNC(=O)[C@H]2C[C@@H](C#N)NC1=O [Example 149]	< 100	100 to 1000
N#C[C@@H]1C[C@@H]2C(=O)NC[C@@H]2CCCC[C@H](NC(=O)C2(C(F)(F)F)CC2)C(=O)N2C[C@@H]3CCC[C@@H]3[C@H]2C(=O)N1 [Example 150]	< 100	< 100
N#C[C@@H]1C[C@@H]2C(=O)NC[C@@H]2CCCC[C@H](NC(=O)C2(C(F)(F)F)CC2)C(=O)N2CCC3(CC3)C[C@H]2C(=O)N1 [Example 151]	< 100	100 to 1000
CC1(C)[C@@H]2[C@H]3C(=O)N[C@H](C#N)C[C@@H]4C(=O)NC[C@@H]4CCCC[C@H](NC(=O)OC4(C(F)(F)F)CCC4)C(=O)N3C[C@@H]21 [Example 152]	< 100	< 100
CC1(C)[C@@H]2[C@H]3C(=O)N[C@H](C#N)C[C@@H]4C(=O)NC[C@@H]4CCCC[C@H](NC(=O)c4cc(C(F)(F)F)on4)C(=O)N3C[C@@H]21 [Example 153]	< 100	100 to 1000
CC1(C)[C@@H]2[C@H]3C(=O)N[C@H](C#N)C[C@@H]4C(=O)NC[C@@H]4CCCC[C@H](NS(=O)(=O)c4ccccc4)C(=O)N3C[C@@H]21 [Example 154]	< 100	< 100
